Assay results taken from article PMC11672801, “Synthesis of Temporin-SHa Retro Analogs with Lysine Addition/Substitution and Antibiotic Conjugation to Enhance Antibacterial, Antifungal, and Anticancer Activities” (Antibiotics, 2024).
Converted amounts (≈) assume the structure as drawn. Where two headings read alike, the source gives them in different places. Where a SMILES comes first, the peptide text is derived from it. [ ]: non-standard residue; d: D form. The star is where a group is joined. Levofloxacinoyl = C[C@H]1COc2c(N3CCN(C)CC3)c(F)cc3c(=O)c(C(=O)*)cn1c23

Assays:
E. coli (ATCC 25922) = test: Antibacterial broth microdilution MIC assay; type: cell-based, Escherichia coli; conditions: >99% inhibition of growth, MH broth, 20-22 h, 37 °C
Method: (§1) The antibacterial activity of peptide analogs was tested against different bacterial strains, i.e., Salmonella enterica subsp. enterica serotype Typhimurium or Salmonella typhi (ATCC 14028), Staphylococcus aureus (NCTC 13277), Bacillus subtilis (ATCC 23857), Escherichia coli (ATCC 25922), and Pseudomonas aeruginosa (ATCC 10145). These strains were obtained from the microbial bank of Dr. Panjwani Center for Molecular Medicine and Drug research (PCMD), International Center for Chemical and Biological Sciences (ICCBS), University of Karachi. Colonies of these bacterial strains were grown in respective agar media, then inoculated in Mueller Hinton (MH) broth (Oxoid, UK) and incubated at 37 °C overnight. The peptide solutions were first diluted 1 in 100 (from the stock solution at 20 mM) and then further two-fold dilution in MH broth in a sterile 96-well plate was performed, resulting in 100 µL of broth containing increasing concentrations of analogs. Bacteria in their exponential growth phase were diluted in MH broth, and 100 µL of this suspension was added in each well. […] Then, these plates were incubated at 37 °C for 20–22 h. MIC (Minimum Inhibitory Concentration) values were determined as the concentrations of peptides causing >99% inhibition of bacterial growth.

[1] = system: human cervical cancer (HeLa) cells; test: cells; type: cell-based
Method: (§2) Human breast cancer (MCF-7) and human cervical cancer (HeLa) cells were obtained from the cell culture bank of PCMD in ICCBS, University of Karachi. These cells were maintained in Dulbecco’s Modified Eagle Medium (DMEM), supplemented with 10% fetal bovine serum, and incubated at 37 °C and 5% CO2. The antiproliferative activity of the samples was determined by a MTT assay. Briefly, the cells were washed with PBS and trypsinized. After determination of the cell number using Malassez cell counting, 100 µL of the cell suspension were seeded in a 96-well plate at the density of 6000 cells/well and incubated at 37 °C and 5% CO2. After 24 h, the cells were treated with increasing concentrations of analogs. The next day, media was removed and 200 µL of MTT dye (0.5 mg/mL) was added in each well and incubated for 3 h at 37 °C in 5% CO2 incubator. Then, the media was removed and 100 µL of DMSO was added to solubilize formazan crystals. After one minute of shaking, the absorbance was recorded at 540 nm in microplate reader (Multiskan GO, ThermoScientific, Waltham, MA, USA). Finally, the percent inhibition of proliferation was calculated using the following formula: % inhibition of proliferation=O.D of treated well−O.D of media control/O.D of untreated control−O.D of media control×100

[2] = system: Human breast cancer (MCF-7) cells; test: cells; type: cell-based; conditions: 24 h
Method: as §2

S. aureus (NCTC 13277) = conditions: >99% inhibition of growth, MH broth, 20-22 h, 37 °C
[3] = system: cancer cells (MCF-7, HeLa); set-up: species or system human
Method: The selectivity of action of the analogs against micro-organisms or cancer cells was further evaluated through calculation of their selectivity indexes (SIs). SIs were determined using either the MIC on micro-organisms or IC50 on cancer cells compared to HC50 values, and they are reported in Table 6.

[4] = system: P. aeruginosa (ATCC 10145); test: Antibacterial broth microdilution MIC assay; type: cell-based, Pseudomonas aeruginosa; conditions: >99% inhibition of growth, MH broth, 20-22 h, 37 °C
Method: as §1

[5] = system: human red blood cells (RBC); test: Hemolytic assay; type: cell-based; conditions: red cells of human, 1 h
Method: For the hemolytic assay, fresh human blood (2 mL) was obtained from a healthy donor in EDTA tube while following the protocol of approval from the Independent Ethics Committee of ICCBS (approval number ICCBS/IEC-047-HB-2019/Protocol/1.0). The blood was centrifuged and upper supernatant plasma was removed. The cell pellets were washed with sterile PBS three times. The washed blood cells were then diluted 25 times to make 4% concentration of the initial blood cells. Red blood cells (500 µL) were treated with increasing concentrations of analogs, with triton X-100 at 0.1% being used as positive control giving 100% hemolysis. After 1 h of incubation at 37 °C, tubes were centrifuged at 800 rpm for 5 min to pellet down red blood cells. After centrifugation, 200 µL of supernatant were transferred into a 96 well plate and the absorbance was recorded at 576 nm using a microplate reader (MultiSkan Go, ThermoScientific). Then, the following formula was applied to calculate percent hemolysis: % Hemolysis=O.D of test sample−O.D of PBS control/O.D of Tritox×positive control−O.D of PBS control×100

C. albicans (ATCC 36082) = test: microbe, parasite or virus in culture; conditions: ATCC 36082, 24 h
Method: Candida albicans (ATCC 36082) was cultured on Sabourad Dextrose Agar (SDA). A single colony was inoculated in Sabouraud Dextrose Broth (SDB) medium and grown overnight at 37 °C while shaking. The next day, the susceptibility of C. albicans was tested using a broth microdilution assay. Peptide analogs were diluted in SDB media by two-fold dilution, resulting in 100 µL of medium containing increasing concentrations of analogs. The overnight culture (turbidity at OD600 = 1) was 1000× diluted in SDB. Then 100 µL of this suspension was added to each well, resulting in a final 200 µL suspension containing 2–4 × 10^5 CFU/mL. The plate was incubated at 37 °C for 24 h. The next day, MIC (Minimum Inhibitory Concentration) values were determined as the concentrations of peptides causing > 99% inhibition of yeast growth.

B. subtilis (ATCC 23857) = test: Antibacterial broth microdilution MIC assay; type: cell-based, Bacillus subtilis; conditions: >99% inhibition of growth, MH broth, 20-22 h, 37 °C
Method: as §1

E. coli = test: Atomic force microscopy imaging of treated bacteria; type: cell-based, Escherichia coli; conditions: 2XMIC, overnight, tapping mode
Method: (§3) Different bacteria (S. typhi, E. coli, and P. aeruginosa) adjusted to 2–3 × 10^7 CFU/mL were treated with 2XMIC values of analogs and incubated overnight at 37 °C. The next day, the bacteria were washed, dispersed in sterile pure grade water, dispensed in poly-L-lysine-coated mica slides, and left for air drying. Changes in the morphology of the bacteria were studied with an atomic force microscope (Agilent 5500, Chandler, AZ, USA). The whole analysis was carried out in tapping mode. Images were collected and optimized at a scan velocity of 1–5 µm/s and 512 × 512-line resolution and processed through PicoView 1.2 imaging software.

P. aeruginosa = test: as above; type: cell-based, Pseudomonas aeruginosa; conditions: 2XMIC, overnight, tapping mode
Method: as §3

[6] = Circular dichroism secondary structure analysis (Bestsel) in 20 mM SDS; type: physicochemical; conditions: CD, 15 µM peptide in 20 mM SDS, 22 °C
Method: The far-ultraviolet circular dichroism (CD) spectra were recorded using a JASCO J-810 spectropolarimeter (Jasco, Tokyo, Japan), with measurements taken in a quartz cuvette with a 10 mm path length. The temperature was kept at 22 °C, and the instrument was calibrated with D-(+)-10-camphorsulfonic acid. Peptides were dissolved in 20 mM SDS to a final concentration of 15 µM. The CD spectra were collected over a wavelength range of 190 to 260 nm with a bandwidth of 2 nm. Each spectrum was recorded with ten consecutive scans at a rate of 50 nm/min, and the baseline was obtained under identical conditions. Secondary structures, i.e., the percentage of alpha-helix and other secondary structures, were quantified from CD data using Bestsel software (https://bestsel.elte.hu/index.php, accessed on 22 October 2024).

SMILES | MIC (E. coli (ATCC 25922)) | IC50 ([1]; 24 h) | IC50 [2] | MIC S. aureus (NCTC 13277) (S. aureus (NCTC 13277)) | IC50 [3] | MIC [4] | HC50 on Human Red Blood Cells (RBCs) [5] | MIC C. albicans (ATCC 36082) (C. albicans (ATCC 36082)) | MIC S. typhi (ATCC 14028) (S. typhi (ATCC 14028); ATCC 14028) | MIC (B. subtilis (ATCC 23857)) | AFM morphology of E. coli after treatment (E. coli) | IC50 ([1]; MTT, 24 h exposure, read-out: IC50 on Cervical Cancer (HeLa)) | AFM morphology of P. aeruginosa after treatment (P. aeruginosa) | Antiparallel (%) [6] | Helix (%) [6] | Others (%) [6] | Parallel (%) [6] | Turn (%) [6] | MIC S. typhi (ATCC 14028) (S. typhi (ATCC 14028); >99% inhibition of growth, MH broth, 20-22 h, 37 °C)
CC[C@H](C)[C@H](NC(=O)[C@@H](NC(=O)CNC(=O)[C@H](CCSC)NC(=O)[C@H](CC(C)C)NC(=O)CNC(=O)[C@H](CCCCNC(=O)c1cn2c3c(c(N4CCN(C)CC4)c(F)cc3c1=O)OC[C@@H]2C)NC(=O)[C@H](CC(C)C)NC(=O)[C@@H](N)Cc1ccccc1)C(C)C)C(=O)N[C@H](C)C(=O)N[C@@H](CO)C(=O)N[C@@H](CC(C)C)C(=O)N[C@@H](Cc1ccccc1)C(=O)N[C@@H](CCCCN)C(N)=O [RLFP-2 (5), H-Phe^1-Leu^2-Lys^3(LF)-Gly^4-Leu^5-Met^6-Gly^7-Val^8-Ile^9-D-Ala^10-Ser^11-Leu^12-Phe^13-Lys^14-NH2] (H-FLK(Levofloxacinoyl)GLMGVI[dA]SLFK-NH2) | >200 µM | > 100 µM | > 100 µM | 100 µM (≈ 187 µg/mL) | > 100 µM | >200 µM | 25.0 µM | >250 µM | 200 µM (≈ 373 µg/mL) | 50 µM (≈ 93.3 µg/mL) |  |  |  |  |  |  |  |  | 
CC[C@H](C)[C@H](NC(=O)[C@@H](NC(=O)CNC(=O)[C@H](CCSC)NC(=O)[C@H](CC(C)C)NC(=O)CNC(=O)[C@H](CCCCN)NC(=O)[C@H](CC(C)C)NC(=O)[C@@H](N)Cc1ccccc1)C(C)C)C(=O)N[C@H](C)C(=O)N[C@@H](CO)C(=O)N[C@@H](CC(C)C)C(=O)N[C@@H](Cc1ccccc1)C(=O)N[C@@H](CCCCN)C(N)=O [RSP-1 (3), H-Phe^1-Leu^2-Lys^3-Gly^4-Leu^5-Met^6-Gly^7-Val^8-Ile^9-D-Ala^10-Ser^11-Leu^12-Phe^13-Lys^14-NH2] (H-FLKGLMGVI[dA]SLFK-NH2) | 25 µM (≈ 38.1 µg/mL) |  | 42.7 µM | 6.25 µM (≈ 9.52 µg/mL) |  | 50 µM (≈ 76.1 µg/mL) | 51.0 µM | 15.6 µM (≈ 23.8 µg/mL) |  | 1.56 µM (≈ 2.38 µg/mL) | significant damages to the bacteria | 33.5 µM | significant damages to the bacteria | 18.2% | 81.8% | 0.00% | 0.00% | 0.00% | 50 µM (≈ 76.1 µg/mL)
